The source made the active and inactive calls. The calls are words filed in the database; no cut-off is given here.
Experiments:
[1] = Cytotoxicity against african green monkey Vero cells assessed as inhibition of cell viability after 48 hrs by MTT assay; format: cell-based; conditions: chlorocebus sabaeus
Human alphaherpesvirus 1 [2] = assay: Antiviral activity against HSV1 infected herpes simplex keratitis New zealand rabbit model assessed as reduction in corneal epithelia involvement score at 0.025% to 0.1% administered twice daily as gel 24 hrs post inoculation measured on day 9 post infection; format: functional, organism-based; conditions: Cornea
Human alphaherpesvirus 1 [3] = assay: Antiviral activity against HSV1 infected herpes simplex keratitis New zealand rabbit model assessed as reduction in viral DNA level in corneal sample compound administered twice daily as gel 24 hrs post inoculation measured on day 9 post infection by RT-PCR analysis; format: functional, organism-based; conditions: Cornea
Human alphaherpesvirus 1 [4] = assay: Antiviral activity against HSV1 infected herpes simplex keratitis New zealand rabbit model assessed as reduction in viral DNA level in corneal sample at 0.025% to 0.1% administered twice daily as gel 24 hrs post inoculation measured on day 9 post infection by RT-PCR analysis; format: functional, organism-based; conditions: Cornea
Human alphaherpesvirus 1 [5] = assay: Antiviral activity against HSV1 strain F ATCC VR733 infected in african green monkey Vero cells assessed as inhibition of cytopathic effect after 48 hrs by plaque reduction assay; format: functional, organism-based; conditions: for EC50: Human alphaherpesvirus 1, strain F ATCC VR733, Vero
[6] = Cytotoxicity against human MRC5 cells after 48 hrs by MTT assay; format: cell-based
Human alphaherpesvirus 1 [7] = assay: Antiviral activity against HSV1 infected herpes simplex keratitis New zealand rabbit model at 0.025% to 0.1% administered twice daily as gel 24 hrs post inoculation measured on day 9 post infection; format: functional, organism-based
Human alphaherpesvirus 1 [8] = assay: Antiviral activity against HSV1 strain F ATCC VR733 infected in african green monkey Vero cells assessed as inhibition of cytopathic effect at 4 uM after 48 hrs by plaque reduction assay; format: functional, organism-based
[9] = Selectivity index, ratio of CC50 for african green monkey Vero cells to EC50 for HSV1 strain F ATCC VR733 infected in african green monkey Vero cells; format: toxicity, cell-based; conditions: read-out: Ratio CC50/EC50
Human alphaherpesvirus 1 [10] = assay: Antiviral activity against HSV1 infected herpes simplex keratitis New zealand rabbit model at 0.1% administered twice daily as gel 24 hrs post inoculation measured on day 9 post infection; format: functional
Human alphaherpesvirus 2 [11] = assay: Antiviral activity against HSV2 strain 333 infected in african green monkey Vero cells assessed as inhibition of cytopathic effect at 4 uM after 48 hrs by plaque reduction assay; format: functional, cell-based
Human alphaherpesvirus 1 [12] = assay: Antiviral activity against HSV1 infected herpes simplex keratitis New zealand rabbit model at 0.025% administered twice daily as gel 24 hrs post inoculation measured on day 9 post infection; format: functional
[13] = Selectivity index, ratio of CC50 for african green monkey Vero cells to EC50 for HSV2 strain 333 infected in african green monkey Vero cells
Human alphaherpesvirus 2 [14] = assay: Antiviral activity against HSV2 strain 333 infected in african green monkey Vero cells assessed as inhibition of cytopathic effect after 48 hrs by plaque reduction assay; format: functional, cell-based; conditions: for EC50: Human alphaherpesvirus 2, strain 333, Vero
Human alphaherpesvirus 2 [15] = assay: Antiviral activity against HSV2 strain 333 infected in african green monkey Vero cells assessed as inhibition of cytopathic effect at 3.5 uM after 48 hrs by plaque reduction assay; format: functional, cell-based
Human alphaherpesvirus 1 [16] = assay: Antiviral activity against HSV1 strain F ATCC VR733 infected in african green monkey Vero cells assessed as inhibition of cytopathic effect at 3.5 uM after 48 hrs by plaque reduction assay; format: functional, organism-based

Row | EC50 (Human alphaherpesvirus 1 [5]) [nM] | EC50 (Human alphaherpesvirus 2 [14]) [nM] | SMILES | CC50 at 48 h [1] [nM] | Activity (Human alphaherpesvirus 1 [2]) | Activity (Human alphaherpesvirus 1 [3]) | Activity (Human alphaherpesvirus 1 [4]) | inhibition (Human alphaherpesvirus 1 [5]) | CC50 at 48 h [6] [nM] | Activity (Human alphaherpesvirus 1 [7]) | inhibition (Human alphaherpesvirus 1 [8]) | selectivity ratio [9] | Activity (Human alphaherpesvirus 1 [10]) [%] | inhibition (Human alphaherpesvirus 2 [11]) | Activity (Human alphaherpesvirus 1 [12]) [%] | Ratio CC50/EC50 [13] | inhibition (Human alphaherpesvirus 2 [14]) | inhibition (Human alphaherpesvirus 2 [15]) | inhibition (Human alphaherpesvirus 1 [16])
1 | 2240 | 1750 | Cc1nn(-c2ccc(C(N)=O)c(N[C@H]3CC[C@H](O)CC3)c2)c2c1C(=O)CC(C)(C)C2 | 27100 | Active | Dose-dependent effect | Active | Dose-dependent effect | 54100 | Active | Active | 12.1 | 83.76 | Active | 74.23 | 15.46 | Dose-dependent effect | – | –
2 | 1030 | 1000 | Cc1cn(-c2ccc(C(N)=O)c(N[C@H]3CC[C@H](O)CC3)c2)c2c1C(=O)CC(C)(C)C2 | 12900 | Active | Dose-dependent effect | Active | Dose-dependent effect | 24900 | Active | Active | 12.6 | – | Active | – | 12.94 | Dose-dependent effect | – | –
3 | 2260 | 1850 | CC1(C)CC(=O)c2c(C(F)(F)F)nn(-c3ccc(C(N)=O)c(N[C@H]4CC[C@H](O)CC4)c3)c2C1 [SNX-2112] | 13300 | Active | Dose-dependent effect | Active | Dose-dependent effect | 21300 | Active | Active | 5.9 | – | Active | – | 7.21 | Dose-dependent effect | – | –

Row | SMILES | EC50 (Human alphaherpesvirus 1 [5]) [nM] | EC50 (Human alphaherpesvirus 2 [14]) [nM] | CC50 at 48 h [1] [nM] | Activity (Human alphaherpesvirus 1 [2]) | Activity (Human alphaherpesvirus 1 [3]) | Activity (Human alphaherpesvirus 1 [4]) | inhibition (Human alphaherpesvirus 1 [5]) | CC50 at 48 h [6] [nM] | Activity (Human alphaherpesvirus 1 [7]) | inhibition (Human alphaherpesvirus 1 [8]) | selectivity ratio [9] | Activity (Human alphaherpesvirus 1 [10]) [%] | inhibition (Human alphaherpesvirus 2 [11]) | Activity (Human alphaherpesvirus 1 [12]) [%] | Ratio CC50/EC50 [13] | inhibition (Human alphaherpesvirus 2 [14]) | inhibition (Human alphaherpesvirus 2 [15]) | inhibition (Human alphaherpesvirus 1 [16])
4 | Nc1nc2c(ncn2COCCO)c(=O)[nH]1 [ACYCLOVIR] | 1200 | 1870 | > 200000 | Active | Dose-dependent effect | Active | – | – | – | – | > 167 | – | – | – | >106.95 | – | Active | Active

Reference: ChEMBL document CHEMBL2163311, “Anti-herpes simplex virus efficacies of 2-aminobenzamide derivatives as novel HSP90 inhibitors” (Bioorg Med Chem Lett, 2012)
